Assays:
SN12C = assay: NCI 60 single concentration growth inhibition; assay type: cell-based, human; conditions: Homo sapiens, Renal cancer, read-out: GI%
How it was run: (§1)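 Cells are plated and left 24 h, and a time-zero plate is fixed at drug addition. Compound is then added for 48 h, the cells are fixed in cold TCA and stained with 0.4% SRB, and bound dye is solubilised in 10 mM Tris for reading at 515 nm.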

BT-549 = assay: NCI 60 single concentration growth inhibition; assay type: cell-based, human; conditions: Homo sapiens, BT-549, Breast cancer, read-out: GI%
How it was run: as §1

NCI-H226 = assay: NCI 60 single concentration growth inhibition; assay type: cell-based, human; conditions: Homo sapiens, NCI-H226, Non-small cell lung cancer, read-out: GI%
How it was run: as §1

PC-3 = assay: NCI 60 single concentration growth inhibition; assay type: cell-based, human; conditions: Homo sapiens, PC-3, Prostate cancer, read-out: GI%
How it was run: as §1

SK-MEL-28 = assay: NCI 60 single concentration growth inhibition; assay type: cell-based, human; conditions: Homo sapiens, SK-MEL-28, Melanoma, read-out: GI%
How it was run: as §1

A549/ATCC = assay: NCI 60 single concentration growth inhibition; assay type: cell-based, human; conditions: Homo sapiens, Non-small cell lung cancer, read-out: GI%
How it was run: as §1

SF-539 = assay: NCI 60 single concentration growth inhibition; assay type: cell-based, human; conditions: Homo sapiens, SF-539, CNS cancer, read-out: GI%
How it was run: as §1

MCF7 = assay: NCI 60 single concentration growth inhibition; assay type: cell-based, human; conditions: Homo sapiens, MCF7, Breast cancer, read-out: GI%
How it was run: as §1

A498 = assay: NCI 60 single concentration growth inhibition; assay type: cell-based, human; conditions: Homo sapiens, A498, Renal cancer, read-out: GI%
How it was run: as §1

SF-268 = assay: NCI 60 single concentration growth inhibition; assay type: cell-based, human; conditions: Homo sapiens, SF-268, CNS cancer, read-out: GI%
How it was run: as §1

EKVX = assay: NCI 5-dose assay; assay type: cell-based; conditions: Homo sapiens, Non-small cell lung cancer
Experimental: (§2) The synthesized dichlorobenzimidazoles 10a–p were assayed for their influence on divers cancer cell lines according to the method presented in the Additional file A.
(§3) 5. Screening of cytotoxic activity against a panel of sixty human tumor cell lines
(§4) The selected compounds by NCI were evaluated for their anticancer activity in a two-stage process. First, these compounds were screened against the full NCI 60 cell lines panel at a single high dose of 10 µM. Then, the output from the single dose screen is reported as a mean graph. […]
(§5) at five different minimal concentrations.
(§6) Assay protocol. The human tumor cell lines of the cancer screening panel are grown in RPMI 1640 medium containing 5% fetal bovine serum and 2 mM L-glutamine. For a typical screening experiment, cells are inoculated into 96 well microtiter plates in 100 µL at plating densities ranging from 5000 to 40,000 cells/well depending on the doubling time of individual cell lines. After cell inoculation, the microtiter plates are incubated at 37 °C, 5% CO 2, 95% air and 100% relative humidity for 24 h prior to addition of the experimental drugs.
(§7) After 24 h, two plates of each cell line are fixed in situ with TCA, to represent a measurement of the cell population for each cell line at the time of drug addition (Tz). The experimental drugs are solubilized in dimethyl sulfoxide at 400-fold the desired final maximum test concentration and stored frozen prior to use. At the time of drug addition, an aliquot of frozen concentrate is thawed and diluted to twice the desired final maximum test concentration with complete medium containing 50 µg/mL gentamicin. Additional four, 10-fold or ½ log serial dilutions are made to provide a total of five drug concentrations plus control.
(§8) Aliquots of […] of these different drug dilutions are added to the appropriate microtiter wells already containing […] of medium, resulting in the required final drug concentrations.
(§9) Following drug addition, the plates are incubated for an additional 48 h at 37 °C, 5% CO 2, 95% air, and 100% relative humidity. For adherent cells, the assay is terminated by the addition of cold TCA.
(§10) Cells are fixed in situ by the gentle addition of 50 µL of cold 50% (w/v) TCA (final concentration, 10% TCA) and incubated for 60 min at 4 °C. The supernatant is discarded, and the plates are washed five times with tap water and air dried. Sulforhodamine B (SRB) solution ([…]) at 0.4% (w/v) in 1% acetic acid is added to each well, and plates are incubated for 10 min at room temperature. After staining, unbound dye is removed by washing five times with 1% acetic acid and the plates are air dried. Bound stain is subsequently solubilized with 10 mM trizma base, and the absorbance is read on an automated plate reader at a wavelength of 515 nm. For suspension cells, the methodology is […]
(§11) the same except that the assay is terminated by fixing settled cells at the bottom of the wells by gently adding 50 µl of 80% TCA (final concentration, 16% TCA). Using the seven absorbance measurements [time zero, (Tz), control growth, (C), and test growth in the presence of drug at the five concentration levels (Ti)], the percentage growth is calculated at each of the drug concentrations […]
(§12) Percentage growth inhibition is calculated as: [(Ti Tz)/(C–Tz)] x 100 for concentrations for which Ti>/=Tz and [(Ti-Tz)/Tz] x 100 for concentrations for which Ti < Tz.
(§13) Three dose response parameters are calculated for each experimental agent. Growth […]
(§14) concentration resulting in a 50% reduction in the net protein increase (as measured by SRB staining) in control cells during the drug incubation. The drug concentration resulting in total growth inhibition (TGI) is calculated from Ti = Tz. […]
(§15) reduction in the measured protein at the end of the drug treatment as compared to that at the beginning) indicating a net loss of cells following treatment is calculated from [(Ti–Tz)/Tz] x 100 =
(§16) _50. Values are calculated for each of these three parameters if the level of activity is reached; […]

OVCAR-4 = assay: NCI 5-dose assay; assay type: cell-based; conditions: Homo sapiens; OVCAR-4, Ovarian cancer
Experimental: as §2, §3, §4, §5, §6, §7, §8, §9, §10, §11, §12, §13, §14, §15, §16

NCI-H322M [1] = assay: NCI 5-dose assay; assay type: cell-based; conditions: Homo sapiens, Non-small cell lung cancer
Experimental: as §2, §3, §4, §5, §6, §7, §8, §9, §10, §11, §12, §13, §14, §15, §16

UACC-257 = assay: NCI 5-dose assay; assay type: cell-based; conditions: Homo sapiens; UACC-257, Melanoma
Experimental: as §2, §3, §4, §5, §6, §7, §8, §9, §10, §11, §12, §13, §14, §15, §16

MALME-3M = assay: NCI 60 single concentration growth inhibition; assay type: cell-based, human; conditions: Melanoma, 10 μM
How it was run: as §1

UO-31 = assay: NCI 60 single concentration growth inhibition; assay type: cell-based, human; conditions: UO-31, Renal cancer, 10 μM
How it was run: as §1

IGROV1 = assay: NCI 60 single concentration growth inhibition; assay type: cell-based, human; conditions: IGROV1, Ovarian cancer, 10 μM
How it was run: as §1

SNB-75 = assay: NCI 60 single concentration growth inhibition; assay type: cell-based, human; conditions: SNB-75, CNS cancer, 10 μM
How it was run: as §1

NCI-H322M [2] = assay: NCI 60 single concentration growth inhibition; assay type: cell-based, human; conditions: Non-small cell lung cancer, 10 μM
How it was run: as §1

Compound | inhibition at 10 µM (SN12C) | inhibition at 10 µM (BT-549) | inhibition at 10 µM (NCI-H226) | inhibition at 10 µM (PC-3) | inhibition at 10 µM (SK-MEL-28) | inhibition at 10 µM (A549/ATCC) | inhibition at 10 µM (SF-539) | inhibition at 10 µM (MCF7) | inhibition at 10 µM (A498) | inhibition at 10 µM (SF-268) | GI50 (EKVX) | GI50 (OVCAR-4) | GI50 (NCI-H322M [1]) | GI50 (UACC-257) | GI% (MALME-3M) | GI% (UO-31) | GI% (IGROV1) | GI% (SNB-75) | GI% (NCI-H322M [2])
COC(=O)COc1ccc(C=NNC(=O)Cn2c(-c3ccc(OC)cc3)nc3cc(Cl)c(Cl)cc32)cc1OC [Compound 10p, Methyl-2-(4-((2-(2-(5,6-dichloro-2-(4-methoxyphenyl)-1H-benzo[d]imidazol-1-yl)acetyl)hydrazono)methyl)-2-methoxyphenoxy)acetate] | 99.5% | 15.1% | < 5% | 79.8% | 6.03% | < 5% | 101% | 25.8% | < 5% | < 5% | 18.9 µM | 23 µM | 22.2 µM | 14.7 µM |  |  |  |  | 
COC(=O)COc1ccc(C=NNC(=O)Cn2c(-c3ccc(OC)cc3)nc3cc(Cl)c(Cl)cc32)cc1 [Compound 10h, Methyl-2-(4-((2-(2-(5,6-dichloro-2-(4-methoxyphenyl)-1H-benzo[d]imidazol-1-yl)acetyl)hydrazono)methyl)phenoxy)acetate] | 66.4% | 6.87% | < 5% | 74.4% | 31.7% | < 5% | 39.2% | 67.5% | < 5% | < 5% | 18.8 µM | 17.2 µM | 21.3 µM | 12.7 µM |  |  |  |  | 
COC(=O)COc1cc(C=NNC(=O)Cn2c(-c3ccc(OC)cc3)nc3cc(Cl)c(Cl)cc32)ccc1OC [Compound 10o, Methyl-2-(5-((2-(2-(5,6-dichloro-2-(4-methoxyphenyl)-1H-benzo[d]imidazol-1-yl)acetyl)hydrazono)methyl)-2-methoxyphenoxy)acetate] | 97.2% | < 5% | 10.2% | 51.2% | < 5% | 8.33% | 80% | 33.4% | < 5% | 18.6% | 89.2 µM | 20.5 µM | 60.4 µM | 38.7 µM | – (GI% < 5%) | 18.26% | 97.59% | 27.54% | 11.69%
COc1ccc(-c2nc3cc(Cl)c(Cl)cc3n2CC(=O)NN=Cc2cccc(OCC(=O)O)c2)cc1 [Compound 10e, 2-(3-((2-(2-(5,6-Dichloro-2-(4-methoxyphenyl)-1H-benzo[d]imidazol-1-yl)acetyl)hydrazono)methyl)phenoxy)acetic acid] | < 5% | < 5% | < 5% | < 5% | < 5% | < 5% | < 5% | 13.6% | < 5% | < 5% |  |  |  |  | – (GI% < 5%) | 10.58% | – (GI% < 5%) | – (GI% < 5%) | – (GI% < 5%)

From publication PMC11844072, “Novel 5,6-dichlorobenzimidazole derivatives as dual BRAFWT and BRAFV600E inhibitors: design, synthesis, anti-cancer activity and molecular dynamics simulations” (BMC Chemistry, 2025)
